In assay [1] the target is AoraGOBP1. Put plainly: Fluorescence competitive binding assay (1-NPN probe) with rAoraGOBP1. The conditions noted are these: for Ki: competitive displacement of 1-NPN, 20 mM Tris-HCl pH 7.4, mean ± S.E.M., read-out: Ki (μM) GOBP1; for Binding affinity to AoraGOBP1 (in words): fluorescence competitive binding. The arrangement: species or system Adoxophyes orana. The method, then:
(§1) The fluorescent competitive binding assays were conducted using an F-2700 spectrophotofluorometer (Hitachi, Tokyo, Japan) to evaluate the binding affinities of AoraGOBP1 and AoraGOBP2 to sex pheromones, and HPVs. […] With the increase of 1 − NPN concentration, the change in fluorescence intensity decreased and eventually stabilized, and the data were recorded. Binding dissociation constant K1−NPN (Kd) of 1 − NPN to rAoraGOBPs were determined. Then, 2 mL protein solution containing 2 μM rAoraGOBPs was titrated with 1 μM of each ligand to a final concentration of 18 µM. The fluorescence intensity was measured and recorded after a 2 min reaction. The Ki for competitive binding of each ligand to rAoraGOBPs using the formula Ki = [IC50]/(1 + [1 − NPN]/K1−NPN), where IC50 is the ligand concentration corresponding to 50% displacement of 1 − NPN. Each assay was replicated three times biologically. The Kd and Ki are presented as mean ± S.E.M.

The target in assay [2] is AoraGOBP2. Put plainly: Fluorescence competitive binding assay (1-NPN probe) with rAoraGOBP2. Set-up: species or system Adoxophyes orana. The note with it: for Ki: competitive displacement of 1-NPN, 20 mM Tris-HCl pH 7.4, mean ± S.E.M., read-out: Ki (μM) GOBP2. As for the experimental part:
as §1

Setting [3] is: fluorescent probe titration, 2 μM protein, pH 7.4.

Where “and” joins values, the source holds several entries; their conditions need not be identical. Identical values can stand only once.

From article PMC12470260, “Functional Divergence of Two General Odorant-Binding Proteins to Sex Pheromones and Host Plant Volatiles in Adoxophyes orana (Lepidoptera: Tortricidae)” (Insects, 2025) come the findings set out here.

For `CC(C)=CCCC(C)=CC=O` (mixture of isomers) [Citral], the Ki in assay [1] (2 μM protein) was found to be 11.7 ± 0.44 µM.

Consider `c1ccc(Nc2cccc3ccccc23)cc1` [1 − NPN, reference compound], for which the results for the Kd in assay [2] (setting [3]) and in assay [1] (setting [3]) were 1.65 µM and 18.4 µM, respectively.

For the compound `C=CC(O)CC` (stereo not shown) [1-Penten-3-ol], the Ki in assay [1] (2 μM protein) was 10.2 ± 0.14 µM.

As to `CCCCCCCCCCCCO` [12:OH], the Ki in assay [2] (2 μM protein) is 1.74 ± 0.03 µM.

Consider `CC/C=C\CCOC(=O)CC(C)C` [(Z)-3-Hexen-1-yl 3-methylbutanoate], for which the Ki in assay [1] (2 μM protein) is 6.21 ± 0.18 µM.

For `CCCCCCCCCC=O` [Decanal], the Ki in assay [1] (2 μM protein) amounted to 0.78 ± 0.15 µM.

As to `CCCCOC(=O)c1ccccc1C(=O)OCCCC` [Dibutyl phthalate], the Ki in assay [2] (2 μM protein) was 5.33 ± 0.04 µM; in assay [1] (2 μM protein), 10.27 ± 0.07 µM.

Turning to `CCOC(=O)C(C)CC` (stereo not shown) [Ethyl 2-methylbutanoate], the Ki in assay [1] (2 μM protein) was 11.78 ± 0.08 µM.

Consider `CC(C)=CCC/C(C)=C/CC/C(C)=C/CO` [Farnesol], for which, in assay [2] (2 μM protein), the Ki is 1.13 ± 0.02 µM.

Turning to `CC(C)C=O` [Isobutyraldehyde], in assay [1] (2 μM protein), the Ki turned out to be 11.9 ± 0.41 µM.

For the compound `COC(=O)c1ccccc1O` [Methyl salicylate], the Ki in assay [1] (2 μM protein) was determined as 4.41 ± 0.2 µM.

In the case of `CCCCC/C=C\C=C\C(=O)OCC` [Pear ester], the Ki in assay [1] (2 μM protein) came to 5.08 ± 0.13 µM.

Regarding `CCCC/C=C\CCCCCCCCOC(C)=O` [Z9-14:Ac, (Z)-9-tetradecenyl acetate], in assay [2] (2 μM protein), the Ki was 6.46 ± 0.18 µM. The “Binding affinity to AoraGOBP2 (in words)” value in assay [2] (fluorescence competitive binding) was “moderate binding affinity”. In addition, in assay [1], the “Binding affinity to AoraGOBP1 (in words)” value is reported as “did not”.

With `CCCC/C=C\CCCCCCCCO` [Z9-14:OH, (Z)-9-tetradecen-1-ol], in assay [2] (2 μM protein), the Ki is 1.49 ± 0.01 µM. The “Binding affinity to AoraGOBP1 (in words)” value in assay [1] is recorded as “did not”.

On to `CCCC/C=C\CCCCCCCCO` [Z11-14:OH, (Z)-9-tetradecen-1-ol], for which the Ki in assay [2] (2 μM protein) was 1.21 µM and 1.24 µM. Further, the “Binding affinity to AoraGOBP1 (in words)” value in assay [1] was “did not”.

Turning to Farnesene, the Ki in assay [2] (2 μM protein) amounted to 6.96 ± 0.32 µM.

What is called Ki is the dissociation constant of the complex between target and ligand, obtained from inhibition or displacement. The term Kd denotes a measure of binding affinity in units of concentration. A lower Kd goes with higher affinity.
